Data: patent US20100273833A1, “2-SULFINYL- AND 2-SULFONYL-SUBSTITUTED IMIDAZOLE DERIVATIVES AND THEIR USE AS CYTOKINE INHIBITORS” (priority 2005, published 2010)
≈ marks a conversion by molar mass, not a printed value. Counter-ions that a name gives are not always drawn.

Key:
Solubility in water = assay type: physicochemical
[1] = In vitro metabolism, incubation with rat liver microsomes; assay type: in vitro ADME; settings: phosphate buffer pH 7.4, NADPH, 37° C., HPLC peak areas
Protocol: The test substances were incubated in standard experiments with rat liver microsomes (phosphate buffer with pH 7.4, NADPH, 37° C.). The biotransformations were stopped after 0, 15, 30 and 60 min by adding acetonitrile and were centrifuged, and the protein-free supernatant was analyzed by HPLC. Resulting metabolites were approximately quantified via the peak areas. The result of the biotransformation of Example 12 and of the corresponding sulfanyl compound, which is representative in terms of the sulfinyl/sulfanyl substitution comparison, is described by way of example. The sulfanyl compound was rapidly converted into a number of metabolites and, after 30 min, less than 1% of the pharmacologically active starting substance remained. Under identical experimental conditions, about 70% of the initial amount of Example 12 were still present after 30 min, and more than 50% were still present after 60 min.

solubility in water (Solubility in water) [µg/mL] | SMILES | further results
1120 | CC(=O)Nc1cc(-c2c(-c3ccc(F)cc3)nc([S+](C)[O-])n2C)ccn1 (stereo not drawn) [Example 3 hydrochloride, N-{4-[5-(4-Fluorophenyl)-2-methanesulfinyl-3-methyl-3H-imidazol-4-yl]pyridin-2-yl}acetamide] | 
 | Fc1ccc(-c2nc3n(c2-c2ccnc(Nc4ccccc4)c2)CCS3)cc1 [Example 34, {4-[6-(4-Fluorophenyl)-2,3-dihydro-imidazo[2,1-b]thiazol-5-yl]-pyridin-2-yl}-phenyl-amine] | melting point: 298.7 °C
70 (≈ 188 µM) | CC(=O)Nc1cc(-c2c(-c3ccc(F)cc3)nc([S+](C)[O-])n2C)ccn1 (stereo not drawn) [Example 3, N-{4-[5-(4-Fluorophenyl)-2-methanesulfinyl-3-methyl-3H-imidazol-4-yl]pyridin-2-yl}acetamide] | 
390 (≈ 1050 µM) | CC(=O)Nc1cc(-c2c(-c3ccc(F)cc3)nc([S+](C)[O-])n2C)ccn1 (stereo not drawn) [Example 3 hydrogensulfate, N-{4-[5-(4-Fluorophenyl)-2-methanesulfinyl-3-methyl-3H-imidazol-4-yl]pyridin-2-yl}acetamide] | 
1050 | CC(=O)Nc1cc(-c2c(-c3ccc(F)cc3)nc([S+](C)[O-])n2C)ccn1 (stereo not drawn) [Example 3 hydrobromide, N-{4-[5-(4-Fluorophenyl)-2-methanesulfinyl-3-methyl-3H-imidazol-4-yl]pyridin-2-yl}acetamide] | 
 | COCCn1c([S+](C)[O-])nc(-c2ccc(F)cc2)c1-c1ccnc(NC(C)C)c1 (stereo not drawn) [Example 12, {4-[5-(4-Fluorophenyl)-2-methanesulfinyl-3-(2-methoxyethyl)-3H-imidazol-4-yl]pyridin-2-yl}isopropylamine] | initial amount of starting substance still present after 30 min ([1]; 30 min): about 70%; initial amount still present after 60 min ([1]; 60 min): more than 50%
310 | CC(=O)Nc1cc(-c2c(-c3ccc(F)cc3)nc([S+](C)[O-])n2C)ccn1 (stereo not drawn) [Example 3 sulfate, N-{4-[5-(4-Fluorophenyl)-2-methanesulfinyl-3-methyl-3H-imidazol-4-yl]pyridin-2-yl}acetamide] | 
890 | CC(=O)Nc1cc(-c2c(-c3ccc(F)cc3)nc([S+](C)[O-])n2C)ccn1 (stereo not drawn) [Example 3 methane sulfonate, N-{4-[5-(4-Fluorophenyl)-2-methanesulfinyl-3-methyl-3H-imidazol-4-yl]pyridin-2-yl}acetamide] | 
